The assay deals with T1, F508delCFTR cell surface expression in CFBE41o-F508delCFTR-HRP cells (Homo sapiens, UniProt P13569, DEL508-508).
T1 construct: fused on or other part: Horseradish peroxidase (HRP) reporter inserted in the fourth exofacial (extracellular) loop of CFTR; expression is doxycycline-inducible
The experiment in a line: Cell Surface Expression-Horse Radish Peroxidase (CSE-HRP) Assay. In kind it is cell-based. The conditions noted are these: for EC50: CFBE41o-F508delCFTR-HRP cells, 18-24 hours at 33° C., 8-point curve, highest concentration 20 μM; for Maximum % activity (%): maximum at any tested concentration, normalized to on-plate positive control (3 μM). In a few lines: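 Correctors incubated 18-24 h at 33 °C on doxycycline-induced (0.5 μg/mL, 72 h) CFBE41o-F508delCFTR-HRP cells, 3-fold series from 20 μM. After DPBS washes, luminol luminescence read; activity expressed relative to DMSO and a 3 μM positive control, EC50 fitted from triplicate plates.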

This note sets out measurements from patent US9840513B2 (AbbVie S.à.r.l., priority 2015, dated 2017).

T1 sequence (P13569 with tags, fused parts or gaps DEL508-508 limits assumed): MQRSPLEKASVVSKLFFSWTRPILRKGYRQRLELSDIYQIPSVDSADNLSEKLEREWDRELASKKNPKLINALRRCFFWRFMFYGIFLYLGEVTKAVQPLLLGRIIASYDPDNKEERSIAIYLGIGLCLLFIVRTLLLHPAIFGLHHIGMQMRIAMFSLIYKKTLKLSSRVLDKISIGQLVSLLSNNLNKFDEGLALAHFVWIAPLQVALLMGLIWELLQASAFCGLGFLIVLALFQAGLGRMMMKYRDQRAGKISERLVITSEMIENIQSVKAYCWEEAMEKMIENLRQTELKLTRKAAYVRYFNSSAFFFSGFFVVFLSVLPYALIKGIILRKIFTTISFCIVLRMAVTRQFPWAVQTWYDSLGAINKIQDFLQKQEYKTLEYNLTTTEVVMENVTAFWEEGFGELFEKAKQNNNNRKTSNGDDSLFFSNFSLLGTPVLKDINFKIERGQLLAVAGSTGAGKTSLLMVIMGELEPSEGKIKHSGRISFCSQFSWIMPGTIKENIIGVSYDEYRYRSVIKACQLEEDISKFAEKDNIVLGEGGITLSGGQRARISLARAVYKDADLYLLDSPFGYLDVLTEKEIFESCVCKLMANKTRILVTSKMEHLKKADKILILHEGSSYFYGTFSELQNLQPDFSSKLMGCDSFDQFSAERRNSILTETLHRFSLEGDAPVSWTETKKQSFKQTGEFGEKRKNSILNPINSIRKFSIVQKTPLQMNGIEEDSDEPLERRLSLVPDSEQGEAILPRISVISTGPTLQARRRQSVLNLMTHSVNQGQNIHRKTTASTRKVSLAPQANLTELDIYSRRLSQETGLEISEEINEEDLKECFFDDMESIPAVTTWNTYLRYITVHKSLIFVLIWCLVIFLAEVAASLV
T1 sequence (P13569 919-1480 limits assumed, stated change not applied): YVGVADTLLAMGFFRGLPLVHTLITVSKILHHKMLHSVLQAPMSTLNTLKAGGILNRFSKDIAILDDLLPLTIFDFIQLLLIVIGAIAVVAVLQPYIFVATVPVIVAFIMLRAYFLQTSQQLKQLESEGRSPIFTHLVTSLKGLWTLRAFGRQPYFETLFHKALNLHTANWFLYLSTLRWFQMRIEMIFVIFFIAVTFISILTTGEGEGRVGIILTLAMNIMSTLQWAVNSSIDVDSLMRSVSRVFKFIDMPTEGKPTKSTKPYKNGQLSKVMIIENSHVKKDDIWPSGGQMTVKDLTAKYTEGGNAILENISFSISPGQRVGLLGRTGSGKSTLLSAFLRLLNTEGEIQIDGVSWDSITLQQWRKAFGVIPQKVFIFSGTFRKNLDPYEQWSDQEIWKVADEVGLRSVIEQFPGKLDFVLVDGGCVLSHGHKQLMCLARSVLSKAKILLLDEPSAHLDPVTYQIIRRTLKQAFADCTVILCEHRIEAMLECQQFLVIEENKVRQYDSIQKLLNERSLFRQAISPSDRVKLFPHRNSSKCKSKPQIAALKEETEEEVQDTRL

Consider `COc1ccc2c(c1)O[C@@H](c1ccc(C(=O)N3C[C@H](O)[C@@H](O)C3)cn1)C[C@H]2NC(=O)[C@@]1(C)COc2cc3c(cc21)OC(F)(F)O3` [Example 249, (7R)—N-[(2R,4R)-2-{5-[(3S,4S)-3,4-dihydroxypyrrolidine-1-carbonyl]pyridin-2-yl}-7-methoxy-3,4-dihydro-2H-1-benzopyran-4-yl]-2,2-difluoro-7-methyl-6,7-dihydro-2H-furo[2,3-f][1,3]benzodioxole-7-carboxamide], for which the EC50 (as a rule, the midpoint of the concentration-response curve) came to 100 nM and the “Maximum % activity (%)” value is recorded as 110%.

For `CCN(CCO)C(=O)[C@H]1CC[C@H]([C@H]2C[C@@H](NC(=O)[C@@]3(C)COc4cc5c(cc43)OC(F)(F)O5)c3ccc(OC(F)(F)F)cc3O2)CC1` [Example 253, (7R)—N-[(2R,4R)-2-{trans-4-[ethyl(2-hydroxyethyl)carbamoyl]cyclohexyl}-7-(trifluoromethoxy)-3,4-dihydro-2H-1-benzopyran-4-yl]-2,2-difluoro-7-methyl-6,7-dihydro-2H-furo[2,3-f][1,3]benzodioxole-7-carboxamide], the concentration for a half-maximal effect (EC50) is 60 nM and the “Maximum % activity (%)” value is reported as 150%.

For the molecule `C[C@]1(C(=O)N[C@@H]2C[C@H]([C@H]3CC[C@H](C(=O)N(CCO)CCO)CC3)Oc3cc(OC(F)(F)F)ccc32)COc2cc3c(cc21)OC(F)(F)O3` [Example 254, (7R)—N-[(2R,4R)-2-{trans-4-[bis(2-hydroxyethyl)carbamoyl]cyclohexyl}-7-(trifluoromethoxy)-3,4-dihydro-2H-1-benzopyran-4-yl]-2,2-difluoro-7-methyl-6,7-dihydro-2H-furo[2,3-f][1,3]benzodioxole-7-carboxamide], the midpoint of the response, the EC50, lay at 80 nM and the “Maximum % activity (%)” value is 136%.

`C[C@]1(C(=O)N[C@@H]2C[C@H]([C@H]3CC[C@H](C(=O)N4C[C@@H](O)[C@H](O)C4)CC3)Oc3cc(OC(F)(F)F)ccc32)COc2cc3c(cc21)OC(F)(F)O3` [Example 255, (7R)—N-[(2R,4R)-2-{trans-4-[(3R,4R)-3,4-dihydroxypyrrolidine-1-carbonyl]cyclohexyl}-7-(trifluoromethoxy)-3,4-dihydro-2H-1-benzopyran-4-yl]-2,2-difluoro-7-methyl-6,7-dihydro-2H-furo[2,3-f][1,3]benzodioxole-7-carboxamide]: the EC50 was 90 nM and the “Maximum % activity (%)” value amounted to 158%.

As for `C[C@]1(C(=O)N[C@@H]2C[C@H]([C@H]3CC[C@H](C(=O)N4CCOCC4CO)CC3)Oc3cc(OC(F)(F)F)ccc32)COc2cc3c(cc21)OC(F)(F)O3` (stereo partly drawn) [Example 257, (7R)-2,2-difluoro-N-[(2R,4R)-2-{trans-4-[3-(hydroxymethyl)morpholine-4-carbonyl]cyclohexyl}-7-(trifluoromethoxy)-3,4-dihydro-2H-1-benzopyran-4-yl]-7-methyl-6,7-dihydro-2H-furo[2,3-f][1,3]benzodioxole-7-carboxamide], the EC50 was 70 nM and the “Maximum % activity (%)” value turned out to be 170%.

As for `CC(O)CNC(=O)[C@H]1CC[C@H]([C@H]2C[C@@H](NC(=O)[C@@]3(C)COc4cc5c(cc43)OC(F)(F)O5)c3ccc(OC(F)(F)F)cc3O2)CC1` (stereo partly drawn) [Example 258, (7R)-2,2-difluoro-N-[(2R,4R)-2-{trans-4-[(2-hydroxypropyl)carbamoyl]cyclohexyl}-7-(trifluoromethoxy)-3,4-dihydro-2H-1-benzopyran-4-yl]-7-methyl-6,7-dihydro-2H-furo[2,3-f][1,3]benzodioxole-7-carboxamide], the midpoint of the response, the EC50, lay at 110 nM and the “Maximum % activity (%)” value came out at 174%.

With `CC(CO)NC(=O)[C@H]1CC[C@H]([C@H]2C[C@@H](NC(=O)[C@@]3(C)COc4cc5c(cc43)OC(F)(F)O5)c3ccc(OC(F)(F)F)cc3O2)CC1` (stereo partly drawn) [Example 259, (7R)-2,2-difluoro-N-[(2R,4R)-2-{trans-4-[(1-hydroxypropan-2-yl)carbamoyl]cyclohexyl}-7-(trifluoromethoxy)-3,4-dihydro-2H-1-benzopyran-4-yl]-7-methyl-6,7-dihydro-2H-furo[2,3-f][1,3]benzodioxole-7-carboxamide], a half-maximal effect (EC50) was put at 80 nM and the “Maximum % activity (%)” value was determined as 163%.
